The values that follow come from ChEMBL document CHEMBL4339232, “Exploiting Chemical Toolboxes for the Expedited Generation of Tetracyclic Quinolines as a Novel Class of PXR Agonists” (ACS Med Chem Lett, 2019).

As usually defined, the EC50 is the concentration needed to bring the measured effect to its halfway point.

Data set [1] addresses T1, PXR (Nuclear receptor subfamily 1 group I member 2) (Homo sapiens, UniProt O75469).
T1 sequence (O75469 whole entry): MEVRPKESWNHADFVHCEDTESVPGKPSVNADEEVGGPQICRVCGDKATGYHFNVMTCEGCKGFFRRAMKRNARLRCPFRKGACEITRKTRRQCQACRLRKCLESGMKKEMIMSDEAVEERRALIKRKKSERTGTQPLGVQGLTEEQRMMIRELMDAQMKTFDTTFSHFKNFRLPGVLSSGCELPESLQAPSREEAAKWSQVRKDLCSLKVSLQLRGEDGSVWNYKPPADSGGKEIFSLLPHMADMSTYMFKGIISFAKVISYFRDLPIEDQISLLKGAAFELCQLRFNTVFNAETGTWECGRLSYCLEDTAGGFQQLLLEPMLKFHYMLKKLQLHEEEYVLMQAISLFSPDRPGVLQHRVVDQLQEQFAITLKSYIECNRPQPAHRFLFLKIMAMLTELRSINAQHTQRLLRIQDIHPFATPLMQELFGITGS
Nature of the data set: Agonist activity at PXR (unknown origin) at 20 uM by AlphaScreen assay relative to T0901317. Particulars: read-out: Activity.

The target of data set [2] is T1, PXR (Nuclear receptor subfamily 1 group I member 2). Nature of the data set: Agonist activity at PXR (unknown origin) assessed as maximum receptor activation response at 20 uM by AlphaScreen assay relative to T0901317. To be noted: read-out: Efficacy. On the technique in general: Bead proximity is the source of the signal in Alpha formats.
Data set [3] concerns the target T2, Nuclear receptor subfamily 1 group I member 2 (Homo sapiens, UniProt O75469).
T2 sequence (O75469 whole entry): T1 sequence (O75469 whole entry)
Nature of the data set: Agonist activity at PXR (unknown origin) by AlphaScreen assay.

Each structure is given as a SMILES string.

For `CC(C)(C)OC(=O)N1CC[C@H]2[C@@H](c3ccsc3)Nc3c(ccc4c3CCCC4)[C@H]21`, the activity at 20 µM in data set [1] was in the range of 50 to 75%. In addition, in data set [2], the Emax at 20 µM was found to be 60%. For the same molecule, the concentration giving a half-maximal response (EC50) in data set [3] stood at 3.2 µM.
Take `CC(C)(C)OC(=O)N1CC[C@@H]2[C@H]1c1ccc3c(c1N[C@H]2c1ccsc1)CCCC3`: the activity at 20 µM in data set [1] was 75 to 100%. The Emax at 20 µM in data set [2] lay within 82 to 119%. In data set [3], the 50% effective concentration (EC50) lay in the range of 1.2 to 1.6 µM.
Turning to `c1coc([C@H]2Nc3c(ccc4c3CCCC4)[C@@H]3OCCC[C@H]23)c1` (racemic), the activity at 20 µM in data set [1] is less than 25%.
Take `c1cc([C@@H]2Nc3c(ccc4c3CCCC4)[C@@H]3NCC[C@H]23)cs1` (racemic): the activity at 20 µM in data set [1] was less than 25%.
The same measure, in the same setting: the result for `CC(C)(C)OC(=O)N1CC[C@@H]2[C@H](c3ccccc3)Nc3c(ccc4c3CCCC4)[C@@H]21` (racemic) reads 50 to 75%.
Still for that read-out and setting: under `CC(C)(C)OC(=O)N1CCC[C@@H]2[C@@H](c3ccsc3)Nc3c(ccc4c3CCCC4)[C@@H]21` (racemic) stands less than 25%; under `c1csc([C@H]2Nc3c(ccc4c3CCCC4)[C@@H]3OCC[C@H]23)c1` (racemic), less than 25%.
With `CC(C)(C)OC(=O)N1CC[C@@H]2[C@H](c3ccco3)Nc3c(ccc4c3CCCC4)[C@@H]21` (racemic), in data set [1], the activity at 20 µM lay in the range of 75 to 100%. In data set [2], the Emax at 20 µM worked out at 53%. For the same molecule, in data set [3], the response was half-maximal at 1.5 µM (EC50).
Regarding `c1cc([C@@H]2Nc3c(ccc4c3CCCC4)[C@@H]3NCCC[C@H]23)cs1` (racemic), the activity at 20 µM in data set [1] is less than 25%.
Regarding `CC(C)(C)OC(=O)N1CCC[C@@H]2[C@H](c3ccsc3)Nc3c(ccc4c3CCCC4)[C@@H]21` (racemic), in data set [1], the activity at 20 µM was 50 to 75%.
For the molecule `c1coc([C@@H]2Nc3c(ccc4c3CCCC4)[C@@H]3OCCC[C@H]23)c1` (racemic), the activity at 20 µM in data set [1] fell in the range of 50 to 75%.
`CC(C)(C)OC(=O)N1CC[C@@H]2[C@@H](c3ccccc3)Nc3c(ccc4c3CCCC4)[C@@H]21` (racemic): the activity at 20 µM in data set [1] was less than 25%.
For the molecule `c1ccc([C@@H]2Nc3c(ccc4c3CCCC4)[C@@H]3OCCC[C@H]23)cc1` (racemic), the activity at 20 µM in data set [1] is less than 25%.
`c1coc([C@@H]2Nc3c(ccc4c3CCCC4)[C@@H]3NCC[C@H]23)c1` (racemic): the activity at 20 µM in data set [1] is less than 25%.
For the molecule `CC(C)(C)OC(=O)N1CCC[C@@H]2[C@H](c3ccccc3)Nc3c(ccc4c3CCCC4)[C@@H]21` (racemic), the activity at 20 µM in data set [1] was less than 25%.
Turning to `c1cc([C@H]2Nc3c(ccc4c3CCCC4)[C@@H]3OCC[C@H]23)cs1` (racemic), in data set [1], the activity at 20 µM lay in the range of 25 to 50%.
Consider `c1ccc([C@@H]2Nc3c(ccc4c3CCCC4)[C@@H]3OCC[C@H]23)cc1` (racemic), for which, in data set [1], the activity at 20 µM fell in the range of 25 to 50%.
Turning to `c1ccc([C@H]2Nc3c(ccc4c3CCCC4)[C@@H]3OCC[C@H]23)cc1` (racemic), the activity at 20 µM in data set [1] was less than 25%.
For `CC(C)(C)OC(=O)N1CC[C@@H]2[C@@H](c3ccsc3)Nc3c(ccc4c3CCCC4)[C@@H]21` (racemic), the Emax at 20 µM in data set [2] was 15%. Further, the midpoint of the response in data set [3], the EC50, lay at 3.7 µM.
In the case of `c1coc([C@H]2Nc3c(ccc4c3CCCC4)[C@@H]3OCC[C@H]23)c1` (racemic), in data set [1], the activity at 20 µM is less than 25%.
In the case of `c1csc([C@@H]2Nc3c(ccc4c3CCCC4)[C@@H]3OCC[C@H]23)c1` (racemic), the activity at 20 µM in data set [1] was 50 to 75%.
As for `CC(C)(C)OC(=O)N1CC[C@@H]2[C@H](c3ccsc3)Nc3c(ccc4c3CCCC4)[C@@H]21` (racemic), in data set [2], the Emax at 20 µM was 28%. The same molecule registered an EC50 in data set [3] of 8.4 µM.
Consider `c1coc([C@@H]2Nc3c(ccc4c3CCCC4)[C@@H]3OCC[C@H]23)c1` (racemic), for which, in data set [1], the activity at 20 µM lay within 50 to 75%.
For `CC(C)(C)OC(=O)N1CCC[C@@H]2[C@@H](c3ccccc3)Nc3c(ccc4c3CCCC4)[C@@H]21` (racemic), in data set [1], the activity at 20 µM was less than 25%.
Regarding `CC(C)(C)OC(=O)N1CCC[C@@H]2[C@@H](c3ccco3)Nc3c(ccc4c3CCCC4)[C@@H]21` (racemic), the activity at 20 µM in data set [1] fell in the range of 25 to 50%.
On to `c1cc([C@@H]2Nc3c(ccc4c3CCCC4)[C@@H]3OCC[C@H]23)cs1` (racemic), for which the activity at 20 µM in data set [1] fell in the range of 75 to 100%. The Emax at 20 µM in data set [2] came to 42%. In addition, in data set [3], a half-maximal effect (EC50) was put at 3.5 µM.
With `c1coc([C@@H]2Nc3c(ccc4c3CCCC4)[C@@H]3NCCC[C@H]23)c1` (racemic), the activity at 20 µM in data set [1] is less than 25%.
Regarding `CC(C)(C)OC(=O)N1CCC[C@@H]2[C@H](c3ccco3)Nc3c(ccc4c3CCCC4)[C@@H]21` (racemic), in data set [1], the activity at 20 µM was in the range of 25 to 50%.
On to `CC(C)(C)OC(=O)N1CC[C@@H]2[C@@H](c3ccco3)Nc3c(ccc4c3CCCC4)[C@@H]21` (racemic), for which the activity at 20 µM in data set [1] was 25 to 50%.
Take `c1ccc([C@H]2Nc3c(ccc4c3CCCC4)[C@@H]3OCCC[C@H]23)cc1` (racemic): the activity at 20 µM in data set [1] was less than 25%.
`c1ccc([C@@H]2Nc3c(ccc4c3CCCC4)[C@@H]3NCC[C@H]23)cc1` (racemic): in data set [1], the activity at 20 µM was less than 25%.
